Read-outs that look alike come from different tables or passages of the source. Blank lines part the entries; values can stand above or below the compound they belong to.
Columns and labels:
[1] = tested on: Candida albicans; experiment: MIC and MFC against Candida albicans; type: cell-based
Procedure: (§1) A study was carried out to determine the effectiveness of thymol and carvacrol, singly or in combination, against bacterial vaginosis, trichomoniasis, candidiasis and lactobacilli relative to metronidazole, clotrimazole and clindamycin.
(§2) The results are shown in Table 2, wherein minimum inhibitory concentration (MIC) and minimum bactericidal (or fungicidal) concentration (MBC or MFC) are shown: […]

[2] = tested on: Lactobacillus; experiment: MIC and MBC against Lactobacillus; type: cell-based
Procedure: as §1, §2

[3] = tested on: Gardnerella vaginalis; experiment: MIC and MBC against Gardnerella vaginalis; type: cell-based
Procedure: as §1, §2

[4] = tested on: Gardnerella vaginalis biofilm; details: cited from earlier work
[5] = tested on: Gardnerella vaginalis biofilm; details: cited from earlier work; for Mature biofilm inhibition: Gardnerella mature biofilm; for Native biofilm inhibition: Gardnerella native biofilm
[6] = tested on: C. albicans biofilms; details: cited from earlier work
[7] = tested on: Lactobacillus acidophilus; experiment: Inhibition of Lactobacillus acidophilus across thymol concentration range; type: cell-based; details: steady rate across the concentration range
Description: Lactobacillus acidophilus, with a steady rate of <10% inhibition of Lactobacillus acidophilus across the concentration range, compared to inhibition range of 10% to 100% across the same concentration range.

[8] = tested on: G. vaginalis; details: cited from earlier work

Structure (SMILES): Cc1ccc(C(C)C)c(O)c1 [Thymol]
Mature biofilm inhibition ([5]; 1/4 MIC): 13.20% | Mature biofilm inhibition ([5]; 1 MIC): 26.18% | Native biofilm inhibition ([5]; 1/8 MIC): 11.39% | Native biofilm inhibition ([5]; 1 MIC): 32.77% | Destruction of mature biofilms ([6]; C. albicans mature biofilms): considerable effect | Reduction in biofilms formed ([6]; C. albicans, 0.5xMIC, P<0.05): significant reduction | Inhibition of Lactobacillus acidophilus [7]: < 10% | MBC ([3]; read-out: MBC): 250 µg/mL | MIC ([3]; read-out: MIC): 175 µg/mL | Adhesion of G. vaginalis to human vaginal cells [8]: interfere with the adhesion | MFC ([1]; read-out: MFC): 2500 µg/mL | MIC ([1]; read-out: MIC): 125 µg/mL

Structure (SMILES): Cc1ccc(C(C)C)cc1O [Carvacrol]
MBC [2]: 2440 µg/mL | MIC [2]: 2440 µg/mL | MBC [3]: 156 µg/mL | MIC [3]: 156 µg/mL | MFC [1]: 1250 µg/mL | MIC [1]: 625 µg/mL

Structure (SMILES): CCC[C@@H]1C[C@@H](C(=O)N[C@@H]([C@H]2O[C@H](SC)[C@H](O)[C@@H](O)[C@H]2O)[C@H](C)Cl)N(C)C1 [Clindamycin, reference compound]
MIC ([2]; read-out: MIC): 1000 µg/mL | MBC ([3]; read-out: MBC): 8 µg/mL | MIC ([3]; read-out: MIC): 4 µg/mL

Further lines, with some results ahead:

MIC ([1]; read-out: MIC): 1000 µg/mL
Structure (SMILES): Clc1ccccc1C(c1ccccc1)(c1ccccc1)n1ccnc1 [Clotrimazole, reference compound]
MFC ([1]; read-out: MFC): ≥ 2000 µg/mL

MIC ([2]; read-out: MIC): ≥ 1000 µg/mL | MIC ([3]; read-out: MIC): 64 µg/mL
Structure (SMILES): Cc1ncc([N+](=O)[O-])n1CCO [Metronidazole, reference compound]
Prevention of biofilm formation ([4]; Gardnerella vaginalis): only able to prevent biofilm formation | Inhibition or killing of mature biofilm ([4]; mature biofilm of Gardnerella vaginalis): unable to inhibit or kill

— patent US20250302740A1, “A CONTROLLED RELEASE, ANTIMICROBIAL GEL FOR THE TREATMENT OF VAGINAL INFECTIONS” (priority 2022, published 2025)
